Assay results reported in patent US7045606B2, “Bifunctional chelating agent for actinium” (European Community, priority 2001, dated 2006).

Test: complexation properties of chelating agents with 225Ac
Assay type: physicochemical
Details: compared with the non-functionalised chelating agents EDTA, DTPA, DOTA, PEPA, HEHA, HOHEC and EDTMP
Procedure: Different non-functionalised chelating agents (commercially available or readily synthesised in the laboratory) bearing aminocarboxylate groups (EDTA, DTPA, DOTA, PEPA, HEHA and HOHEC) or aminophosphonate groups (EDTMP) were tested for their complexation properties with ^225Ac. […] Polyaza polycarboxylic macrocycles are known to form thermodynamically stable complexes with large metal ions such as actinides and lanthanides.

- complexation properties with ^225Ac: best candidate
Compound: O=C(O)CN1CCN(CC(=O)O)CCN(CC(=O)O)CCN(CC(=O)O)CCN(CC(=O)O)CCN(CC(=O)O)CCN(CC(=O)O)CCN(CC(=O)O)CC1 [HOTEC, 1,4,7,10,13, 16,19,22-octacarboxylmethyl-1,4,7,10,13,16,19,22-octaazacyclotetracosane]
